Assays:
[1] = target: T1, CXC chemokine receptor 4 (CXCR4) (Homo sapiens, UniProt P61073); assay: Tag-lite TR-FRET competition with CXCL12-red on HALO-CXCR4 cells; also inhibits […]5 antibody binding on Jurkat cells; type: cell-based
[2] = target: T1, CXC chemokine receptor 4 (CXCR4); assay: cell-based

T1 sequence (P61073 whole entry): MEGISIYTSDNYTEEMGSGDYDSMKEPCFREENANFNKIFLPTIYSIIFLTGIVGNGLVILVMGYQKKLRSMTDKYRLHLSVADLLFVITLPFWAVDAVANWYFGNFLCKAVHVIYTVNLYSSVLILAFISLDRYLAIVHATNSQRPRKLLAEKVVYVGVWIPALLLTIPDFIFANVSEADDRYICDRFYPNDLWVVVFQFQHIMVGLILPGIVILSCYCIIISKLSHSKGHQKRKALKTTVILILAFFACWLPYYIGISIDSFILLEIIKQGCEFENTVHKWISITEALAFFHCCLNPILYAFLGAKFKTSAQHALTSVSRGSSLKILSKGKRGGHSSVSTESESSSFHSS

| Compound | Ki [1] [µM] | Ki [2] [µM] |
| --- | --- | --- |
| NC(=NCc1ccc(Cl)cc1)SCCCc1cnc[nH]1 [CB, clobenpropit] | 1.5 |  |
| NCCc1c[nH]cn1 [HA, histamine] |  | ~26.5 |
